What was measured:
Format in all cases: in vivo
[1] = test system: barnyard grass; assay: Test Example 1: weedkilling efficacy, preemergent weed treatment in the submerged state; A: barnyard grass; conditions: treatment dosage 320 g/ha
Summary of the method: (§1)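 Pots of alluvial soil were flooded to a 4 cm depth. Mixed weed seeds were sown and 2.5 leaf-stage rice seedlings transplanted. On sowing day, water-diluted emulsion was applied to the water surface (dose in g/ha). After 3 weeks at 25–30 °C, effects were rated.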

[2] = test system: bulrush; assay: Test Example 1: weedkilling efficacy, preemergent weed treatment in the submerged state; B: bulrush; conditions: treatment dosage 320 g/ha
Summary of the method: as §1

[3] = test system: oval-leafed pondweed; assay: Test Example 1: weedkilling efficacy, preemergent weed treatment in the submerged state; C: oval-leafed pondweed; conditions: treatment dosage 320 g/ha
Summary of the method: as §1

[4] = test system: transplanted rice; assay: Test Example 1: preemergent weed treatment in the submerged state, effect on crop; a: transplanted rice; conditions: treatment dosage 320 g/ha
Summary of the method: as §1

[5] = test system: barnyard grass; assay: Test Example 2: weedkilling efficacy, growth period weed treatment in the submerged state; A: barnyard grass; conditions: treatment dosage 320 g/ha
Summary of the method: (§2)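 Weeds treated at the 1-2 leaf stage by application of diluted emulsion onto floodwater (4 cm depth, alluvial soil) at specified g/ha. Grown in greenhouse at 25 to 30° C; herbicidal effect rated three weeks after treatment.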

[6] = test system: bulrush; assay: Test Example 2: weedkilling efficacy, growth period weed treatment in the submerged state; B: bulrush; conditions: treatment dosage 320 g/ha
Summary of the method: as §2

[7] = test system: oval-leafed pondweed; assay: Test Example 2: weedkilling efficacy, growth period weed treatment in the submerged state; C: oval-leafed pondweed; conditions: treatment dosage 320 g/ha
Summary of the method: as §2

[8] = test system: crabgrass; assay: Test Example 3: weedkilling efficacy through soil treatment; D: crabgrass; conditions: soil treatment, treatment dosage 320 g/ha
Summary of the method: (§3)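 Crop and weed responses were judged three weeks after a uniform surface spray of the water-diluted emulsion at the given g/ha rate. Seeds sat beneath about 1.5 cm of sterilized diluvial soil, and boxes stood in a greenhouse at 25 to 30° C.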

[9] = test system: green foxtail; assay: Test Example 3: weedkilling efficacy through soil treatment; E: green foxtail; conditions: soil treatment, treatment dosage 320 g/ha
Summary of the method: as §3

[10] = test system: barnyard grass; assay: Test Example 3: weedkilling efficacy through soil treatment; F: barnyard grass; conditions: soil treatment, treatment dosage 320 g/ha
Summary of the method: as §3

[11] = test system: wild oat; assay: Test Example 3: weedkilling efficacy through soil treatment; G: wild oat; conditions: soil treatment, treatment dosage 320 g/ha
Summary of the method: as §3

[12] = test system: black-grass; assay: Test Example 3: weedkilling efficacy through soil treatment; H: black-grass; conditions: soil treatment, treatment dosage 320 g/ha
Summary of the method: as §3

[13] = test system: Italian ryegrass; assay: Test Example 3: weedkilling efficacy through soil treatment; I: Italian ryegrass; conditions: soil treatment, treatment dosage 320 g/ha
Summary of the method: as §3

[14] = test system: common wind-grass; assay: Test Example 3: weedkilling efficacy through soil treatment; J: common wind-grass; conditions: soil treatment, treatment dosage 320 g/ha
Summary of the method: as §3

[15] = test system: Indian mallow; assay: Test Example 3: weedkilling efficacy through soil treatment; K: Indian mallow; conditions: soil treatment, treatment dosage 320 g/ha
Summary of the method: as §3

[16] = test system: redroot pigweed; assay: Test Example 3: weedkilling efficacy through soil treatment; L: redroot pigweed; conditions: soil treatment, treatment dosage 320 g/ha
Summary of the method: as §3

[17] = test system: fig-leafed goosefoot; assay: Test Example 3: weedkilling efficacy through soil treatment; M: fig-leafed goosefoot; conditions: soil treatment, treatment dosage 320 g/ha
Summary of the method: as §3

[18] = test system: chickweed; assay: Test Example 3: weedkilling efficacy through soil treatment; N: chickweed; conditions: soil treatment, treatment dosage 320 g/ha
Summary of the method: as §3

[19] = test system: catchweed; assay: Test Example 3: weedkilling efficacy through soil treatment; O: catchweed; conditions: soil treatment, treatment dosage 320 g/ha
Summary of the method: as §3

[20] = test system: birds-eye speedwell; assay: Test Example 3: weedkilling efficacy through soil treatment; p: birds-eye speedwell; conditions: soil treatment, treatment dosage 320 g/ha
Summary of the method: as §3

[21] = test system: directly sown rice; assay: Test Example 3: soil treatment, effect on crop; b: directly sown rice; conditions: soil treatment, treatment dosage 320 g/ha
Summary of the method: as §3

[22] = test system: corn; assay: Test Example 3: soil treatment, effect on crop; c: corn; conditions: soil treatment, treatment dosage 320 g/ha
Summary of the method: as §3

[23] = test system: soybean; assay: Test Example 3: soil treatment, effect on crop; d: soybean; conditions: soil treatment, treatment dosage 320 g/ha
Summary of the method: as §3

[24] = test system: wheat; assay: Test Example 3: soil treatment, effect on crop; e: wheat; conditions: soil treatment, treatment dosage 320 g/ha
Summary of the method: as §3

[25] = test system: beet; assay: Test Example 3: soil treatment, effect on crop; f: beet; conditions: soil treatment, treatment dosage 320 g/ha
Summary of the method: as §3

[26] = test system: rapeseed; assay: Test Example 3: soil treatment, effect on crop; g: rapeseed; conditions: soil treatment, treatment dosage 320 g/ha
Summary of the method: as §3

CC(C)(C(=O)Nc1cc(C(F)F)ccn1)N1COCN(c2ccccc2)C1=O [A-2-40]
A: barnyard grass, weed kill grade [1]: 5 (weed kill ratio 90% or more, (practically complete withering))
B: bulrush, weed kill grade [2]: 5 (weed kill ratio 90% or more, (practically complete withering))
C: oval-leafed pondweed, weed kill grade [3]: 5 (weed kill ratio 90% or more, (practically complete withering))
a: transplanted rice, effect on crop grade [4]: 1 (weed kill ratio 5% or more, less than 20%)
A (barnyard grass) weedkilling efficacy grade [5]: 5 (weed kill ratio 90% or more, (practically complete withering))
B (bulrush) weedkilling efficacy grade [6]: 5 (weed kill ratio 90% or more, (practically complete withering))
C (oval-leafed pondweed) weedkilling efficacy grade [7]: 5 (weed kill ratio 90% or more, (practically complete withering))
D: crabgrass, weedkilling efficacy grade [8]: 5 (weed kill ratio 90% or more, (practically complete withering))
E: green foxtail, weedkilling efficacy grade [9]: 5 (weed kill ratio 90% or more, (practically complete withering))
F: barnyard grass, weedkilling efficacy grade [10]: 5 (weed kill ratio 90% or more, (practically complete withering))
G: wild oat, weedkilling efficacy grade [11]: 5 (weed kill ratio 90% or more, (practically complete withering))
H: black-grass, weedkilling efficacy grade [12]: 5 (weed kill ratio 90% or more, (practically complete withering))
I: Italian ryegrass, weedkilling efficacy grade [13]: 5 (weed kill ratio 90% or more, (practically complete withering))
J: common wind-grass, weedkilling efficacy grade [14]: 5 (weed kill ratio 90% or more, (practically complete withering))
K: Indian mallow, weedkilling efficacy grade [15]: 4 (weed kill ratio 70% or more, less than 90%)
L: redroot pigweed, weedkilling efficacy grade [16]: 4 (weed kill ratio 70% or more, less than 90%)
M: fig-leafed goosefoot, weedkilling efficacy grade [17]: 4 (weed kill ratio 70% or more, less than 90%)
N: chickweed, weedkilling efficacy grade [18]: 4 (weed kill ratio 70% or more, less than 90%)
O: catchweed, weedkilling efficacy grade [19]: 5 (weed kill ratio 90% or more, (practically complete withering))
P: birds-eye speedwell, weedkilling efficacy grade [20]: 5 (weed kill ratio 90% or more, (practically complete withering))
b: directly sown rice, effect on crop grade [21]: 5 (weed kill ratio 90% or more, (practically complete withering))
c: corn, effect on crop grade [22]: 2 (weed kill ratio 20% or more, less than 40%)
d: soybean, effect on crop grade [23]: 3 (weed kill ratio 40% or more, less than 70%)
e: wheat, effect on crop grade [24]: 1 (weed kill ratio 5% or more, less than 20%)
f: beet, effect on crop grade [25]: 4 (weed kill ratio 70% or more, less than 90%)
g: rapeseed, effect on crop grade [26]: 4 (weed kill ratio 70% or more, less than 90%)
